# Experimental data reported in the supplement of paper PMC10307832.
# Legend:
# Assay in all cases: relative viability (nuclei count vs DMSO), 5 days (fraction); higher = more cells survive
# Bortezomib + Lapatinib = compound: CC(C)C[C@H](NC(=O)[C@H](Cc1ccccc1)NC(=O)c1cnccn1)B(O)O [Bortezomib] + CS(=O)(=O)CCNCc1ccc(-c2ccc3ncnc(Nc4ccc(OCc5cccc(F)c5)c(Cl)c4)c3c2)o1 [Lapatinib] (partner 2 µM)
# In short: (§1)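 Relative viability is defined as nuclei in treated wells over nuclei in vehicle wells. Duplicate plates were run and medians reported. Lung cancer cell lines in 1536-well plates were dosed by pin tool one day after seeding, with one drug or with a fixed anchor-drug dose plus five library-drug doses (not always all listed) in √10 steps, and nuclei were counted after 5 days.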
# [1] = compound: CC1=CC(=NN1)NC2=CC(=NC(=N2)/C=C/C3=CC=CC=C3)N4CCN(CC4)C + COc1cc2c(Oc3ccc(NC(=O)C4(C(=O)Nc5ccc(F)cc5)CC4)cc3F)ccnc2cc1OCCCN1CCOCC1 [Foretinib] (partner 0.25 µM)
# In short: as §1
# [2] = compound: CC1=CC(=NN1)NC2=CC(=NC(=N2)/C=C/C3=CC=CC=C3)N4CCN(CC4)C + N=C(N)NC(=N)NCCc1ccccc1 [Phenformin] (partner 250 µM)
# In short: as §1
# Obatoclax + Bortezomib = compound: COC1=CC(c2cc3ccccc3[nH]2)=N/C1=C\c1[nH]c(C)cc1C [Obatoclax] + CC(C)C[C@H](NC(=O)[C@H](Cc1ccccc1)NC(=O)c1cnccn1)B(O)O [Bortezomib] (partner 0.002 µM)
# In short: as §1
Cell Line,relative viability (Bortezomib + Lapatinib; first compound 0.0002 µM),relative viability (Bortezomib + Lapatinib; first compound 0.000632 µM),relative viability (Bortezomib + Lapatinib; first compound 0.002 µM),relative viability (Bortezomib + Lapatinib; first compound 0.006325 µM),relative viability (Bortezomib + Lapatinib; first compound 0.02 µM),relative viability ([1]; first compound 0.08 µM),relative viability ([1]; first compound 0.253 µM),relative viability ([1]; first compound 0.8 µM),relative viability ([1]; first compound 2.53 µM),relative viability ([1]; first compound 8 µM),relative viability ([2]; first compound 0.08 µM),relative viability ([2]; first compound 0.253 µM),relative viability ([2]; first compound 0.8 µM),relative viability ([2]; first compound 2.53 µM),relative viability ([2]; first compound 8 µM),relative viability (Obatoclax + Bortezomib; first compound 0.01 µM),relative viability (Obatoclax + Bortezomib; first compound 0.03162 µM),relative viability (Obatoclax + Bortezomib; first compound 0.1 µM),relative viability (Obatoclax + Bortezomib; first compound 0.3162 µM),relative viability (Obatoclax + Bortezomib; first compound 1 µM)
NCI-H2023,0.521,0.822,0.773,0.144,0.0649,0.719,0.974,0.832,0.362,0.0501,0.366,0.517,0.382,0.0903,0.0763,1.03,1.08,0.808,0.675,0.425
EBC-1,0.221,0.228,0.204,0.164,0.151,0.107,0.115,0.103,0.106,0.0799,–,–,–,–,–,0.637,0.602,0.481,0.341,0.232
NCI-H1666,0.611,0.883,0.841,0.194,0.187,1.02,0.948,1,0.739,0.33,0.62,0.556,0.542,0.391,0.302,0.863,0.815,0.979,0.348,0.35
NCI-H1975,0.893,0.839,0.18,0.105,0.14,0.928,1.02,0.795,0.326,0.128,0.409,0.397,0.388,0.138,0.118,0.357,0.456,0.361,0.49,0.253
NCI-H1793,0.683,0.624,0.868,0.466,0.154,0.349,0.663,0.329,0.121,0.112,0.344,0.423,0.314,0.132,0.121,–,–,–,–,–
NCI-H1355,0.948,0.906,1.2,0.6,0.134,0.879,1.05,0.985,0.743,0.18,0.484,0.423,0.435,0.26,0.148,1.23,1.11,1.09,1.06,1.21
SW 900,–,–,–,–,–,0.845,0.831,0.871,0.605,0.118,0.467,0.529,0.6,0.172,0.0691,–,–,–,–,–
A549,0.981,0.872,0.957,0.0567,0.0601,1.03,0.914,0.616,0.0324,0.0167,0.178,0.181,0.195,0.0435,0.025,–,–,–,–,–
NCI-H2170,0.253,0.266,0.306,0.266,0.2,1.02,0.981,0.95,0.774,0.183,0.44,0.388,0.382,0.32,0.204,–,–,–,–,–
EKVX,0.205,0.261,0.208,0.204,0.0816,0.761,0.786,1.14,0.504,0.213,0.236,0.21,0.236,0.189,0.109,1.05,1.01,1.03,1.01,1.13
RERF-LC-KJ,0.82,0.91,0.846,0.653,0.242,0.846,0.93,0.824,0.744,0.586,0.417,0.457,0.372,0.256,0.245,1.04,1.07,1.09,0.851,0.765
NCI-H1755,0.991,0.853,1.04,0.48,0.155,0.9,0.962,0.866,0.622,0.297,0.658,0.616,0.551,0.333,0.221,0.926,0.937,0.805,0.949,0.967
NCI-H661,0.458,0.512,0.406,0.297,0.18,0.997,–,1.01,0.576,0.362,0.282,–,0.265,0.226,0.211,0.805,0.704,0.865,0.843,0.786
LOU-NH91,0.795,0.704,0.454,0.334,0.287,0.94,0.976,0.912,0.848,0.507,0.7,0.768,0.78,0.509,0.365,0.531,0.435,–,0.367,0.441
LXF-289,0.908,0.871,0.949,0.115,0.104,0.996,1.02,0.873,0.812,0.194,0.478,0.464,0.496,0.265,0.114,1.01,1.01,0.999,0.958,0.847
HCC-44,0.977,1.02,0.953,0.658,0.118,–,–,–,–,–,0.123,0.326,0.215,0.102,0.115,0.861,0.836,0.822,0.769,0.386
HARA,0.647,0.527,0.73,0.0694,0.0797,0.932,0.909,0.794,0.098,0.0593,0.47,0.513,0.343,0.211,0.138,1.1,0.759,1.17,1.02,0.724
201T,1.01,0.99,1.06,1.05,0.512,1.13,1.32,1.04,1.02,0.206,0.454,0.461,0.415,0.373,0.258,1.09,1.01,1.13,1.1,1.1
LC-2-ad,0.73,–,0.928,0.258,0.1,0.875,0.942,0.753,0.413,0.204,0.554,0.571,0.501,0.251,0.172,0.979,0.98,0.98,0.785,0.339

Cell Line,relative viability (Bortezomib + Lapatinib; first compound 0.0002 µM),relative viability (Bortezomib + Lapatinib; first compound 0.000632 µM),relative viability (Bortezomib + Lapatinib; first compound 0.002 µM),relative viability (Bortezomib + Lapatinib; first compound 0.006325 µM),relative viability (Bortezomib + Lapatinib; first compound 0.02 µM),relative viability ([1]; first compound 0.08 µM),relative viability ([1]; first compound 0.253 µM),relative viability ([1]; first compound 0.8 µM),relative viability ([1]; first compound 2.53 µM),relative viability ([1]; first compound 8 µM),relative viability ([2]; first compound 0.08 µM),relative viability ([2]; first compound 0.253 µM),relative viability ([2]; first compound 0.8 µM),relative viability ([2]; first compound 2.53 µM),relative viability ([2]; first compound 8 µM),relative viability (Obatoclax + Bortezomib; first compound 0.01 µM),relative viability (Obatoclax + Bortezomib; first compound 0.03162 µM),relative viability (Obatoclax + Bortezomib; first compound 0.1 µM),relative viability (Obatoclax + Bortezomib; first compound 0.3162 µM),relative viability (Obatoclax + Bortezomib; first compound 1 µM)
NCI-H596,0.947,1,0.99,0.245,0.264,0.78,0.937,0.633,0.654,0.165,0.767,0.807,0.627,0.608,0.259,1.12,0.974,0.812,0.696,0.674
NCI-H1437,0.655,0.878,0.806,0.0943,0.0863,1.19,1.31,1.3,1.25,0.474,0.3,0.331,0.307,0.16,0.107,0.463,0.421,0.477,0.438,0.358
NCI-H727,0.654,0.872,0.864,0.229,0.113,0.823,0.916,0.679,0.512,0.272,0.398,–,0.41,0.295,0.17,0.892,0.827,1.17,0.847,0.335
NCI-H1944,0.883,0.774,0.929,0.809,0.328,0.916,0.949,0.853,0.535,0.216,0.195,0.225,0.186,0.166,0.119,–,–,–,–,–
NCI-H1792,0.797,0.862,0.967,0.929,0.797,–,–,–,–,–,0.273,0.267,0.166,0.0557,0.0429,0.992,0.926,–,0.917,0.975
Calu-6,0.961,1.03,1.02,0.138,0.109,0.879,0.942,0.519,0.167,0.0898,–,–,–,–,–,1.03,1.02,0.979,0.955,0.191
LCLC-103H,–,–,–,–,–,0.76,0.93,0.639,0.305,0.154,0.344,0.34,0.333,0.326,0.232,1.01,1,0.992,1.07,1.05
NCI-H1395,0.998,0.79,0.449,0.499,0.28,1.11,1.11,0.93,0.663,0.347,0.494,0.434,0.427,0.327,0.264,–,–,–,–,–
NCI-H2342,–,–,–,–,–,0.918,1.06,1.14,1.01,0.578,0.523,0.597,0.565,0.604,0.245,–,–,–,–,–
LK-2,0.804,0.922,0.498,0.204,0.232,1.35,1.02,1,0.382,0.153,0.313,0.327,0.309,0.111,0.117,–,–,–,–,–
NCI-H1299,0.959,0.93,0.933,0.463,0.16,1.04,1.06,1.1,0.4,0.186,–,–,–,–,–,0.969,1.05,0.982,1,0.93
ChaGo-K-1,–,–,–,–,–,0.952,0.915,0.79,0.353,0.186,0.482,0.442,0.434,0.151,0.121,1.11,0.949,–,0.968,1.23
NCI-H1703,1.23,0.947,0.184,0.135,0.145,0.331,0.362,0.291,0.209,0.211,–,–,–,–,–,0.456,0.38,0.304,0.227,0.22
NCI-H522,–,–,–,–,–,–,–,–,–,–,0.664,0.632,0.712,0.544,0.484,–,–,–,–,–
NCI-H1623,–,–,–,–,–,0.817,0.94,0.886,0.803,0.533,0.6,0.615,0.583,0.563,0.343,–,–,–,–,–
IA-LM,0.828,0.851,0.432,0.0336,0.0551,1.07,1.05,0.906,0.601,0.103,–,–,–,–,–,0.838,0.723,0.727,0.0591,0.0714
SK-MES-1,0.487,0.45,0.506,0.423,0.214,0.896,0.858,0.864,0.653,0.352,0.664,0.682,0.601,0.147,0.124,–,–,–,–,–
NCI-H441,–,–,–,–,–,1.16,0.649,1.18,0.384,0.177,0.909,0.955,0.797,0.192,0.156,0.378,0.498,0.413,0.291,0.22
NCI-H358,0.367,0.431,0.43,0.144,0.155,0.705,0.886,0.307,0.145,0.0554,0.272,0.377,0.229,0.0644,0.0549,–,–,–,–,–
